In BindingDB's records for doi:10.1021/bi035098j (Merck Research Laboratories, 2003):

What was measured:
[1] = target: T1, Tyrosine-protein phosphatase non-receptor type 1 [1-298] (Homo sapiens, UniProt P18031); experiment: PTP1B and TCPTP Inhibition Assay; settings: pH 6.3; 22 °C
T1 construct: 1-298
T1 sequence (P18031 whole entry): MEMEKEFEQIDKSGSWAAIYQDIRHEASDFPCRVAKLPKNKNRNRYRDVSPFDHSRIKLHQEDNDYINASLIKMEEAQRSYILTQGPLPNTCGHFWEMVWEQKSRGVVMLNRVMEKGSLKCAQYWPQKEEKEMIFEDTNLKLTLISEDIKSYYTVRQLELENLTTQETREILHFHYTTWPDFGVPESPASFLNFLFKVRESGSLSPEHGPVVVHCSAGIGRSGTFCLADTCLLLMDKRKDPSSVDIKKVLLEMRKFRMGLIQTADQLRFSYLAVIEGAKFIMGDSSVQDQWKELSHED

[2] = target: T2, Tyrosine-protein phosphatase non-receptor type 2 (Homo sapiens, UniProt P17706); experiment: PTP1B and TCPTP Inhibition Assay; settings: pH 6.3; 22 °C
T2 sequence (P17706 whole entry): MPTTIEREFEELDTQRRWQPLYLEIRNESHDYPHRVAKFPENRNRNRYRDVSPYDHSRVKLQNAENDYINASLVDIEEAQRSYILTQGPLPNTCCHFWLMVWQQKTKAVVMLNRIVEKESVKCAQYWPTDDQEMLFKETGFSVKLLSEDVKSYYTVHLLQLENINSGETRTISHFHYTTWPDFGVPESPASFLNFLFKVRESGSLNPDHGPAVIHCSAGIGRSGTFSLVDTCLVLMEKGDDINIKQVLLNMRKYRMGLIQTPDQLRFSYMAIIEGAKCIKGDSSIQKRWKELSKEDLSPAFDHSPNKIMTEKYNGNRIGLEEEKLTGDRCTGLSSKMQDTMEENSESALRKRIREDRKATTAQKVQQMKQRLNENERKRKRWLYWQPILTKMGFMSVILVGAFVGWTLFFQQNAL

Compound | IC50 [1] [nM] | IC50 [2] [nM]
COCOC(CC(C)C)c1ccc2cc(-c3ccc(CC(Cc4ccc(C(F)(F)P(=O)(O)O)cc4)(c4ccccc4)n4nnc5ccccc54)cc3)cc(P(=O)(O)O)c2n1 (centres undefined) [6-{4-[2-(1H-1,2,3-benzotriazol-1-yl)-3-{4-[difluoro(phosphono)methyl]phenyl}-2-phenylpropyl]phenyl}-2-[1-(methoxymethoxy)-3-methylbutyl]quinoline-8-phosphonic acid] | 11 | 21
CC(C)CCOc1ccc(-c2ccc(CC(Cc3ccc(C(F)(F)P(=O)(O)O)cc3)(c3ccccc3)n3nnc4ccccc43)cc2)cc1P(=O)(O)O (centres undefined) [5-{4-[2-(1H-1,2,3-benzotriazol-1-yl)-3-{4-[difluoro(phosphono)methyl]phenyl}-2-phenylpropyl]phenyl}-2-(3-methylbutoxy)benzene-1-phosphonic acid] | 6 | 20
Cc1ccc2cc(-c3ccc(CC(Cc4ccc(C(F)(F)P(=O)(O)O)cc4)(c4ccccc4)n4nnc5ccccc54)cc3)cc(P(=O)(O)O)c2n1 (centres undefined) | – | 20
COc1ccc(-c2ccc(CC(Cc3ccc(C(F)(F)P(=O)(O)O)cc3)(c3ccccc3)n3nnc4ccccc43)cc2)cc1P(=O)(O)O (centres undefined) [5-{4-[2-(1H-1,2,3-benzotriazol-1-yl)-3-{4-[difluoro(phosphono)methyl]phenyl}-2-phenylpropyl]phenyl}-2-methoxybenzene-1-phosphonic acid] | 10 | 31
O=P(O)(O)C(F)(F)c1ccc(CC(Cc2ccc(-c3ccccc3)cc2)(c2ccccc2)n2nnc3ccccc32)cc1 (centres undefined) [({4-[2-(1H-1,2,3-benzotriazol-1-yl)-2-phenyl-3-(4-phenylphenyl)propyl]phenyl}difluoromethyl)phosphonic acid] | 38 | 24
COC(CC(C)C)c1ccc2cc(-c3ccc(CC(Cc4ccc(C(F)(F)P(=O)(O)O)cc4)(c4ccccc4)n4nnc5ccccc54)cc3)cc(P(=O)(O)O)c2n1 (centres undefined) [6-{4-[2-(1H-1,2,3-benzotriazol-1-yl)-3-{4-[difluoro(phosphono)methyl]phenyl}-2-phenylpropyl]phenyl}-2-(1-methoxy-3-methylbutyl)quinoline-8-phosphonic acid] | – | 36
CC(C)CC(O)c1ccc2cc(-c3ccc(CC(Cc4ccc(C(F)(F)P(=O)(O)O)cc4)(c4ccccc4)n4nnc5ccccc54)cc3)cc(P(=O)(O)O)c2n1 (centres undefined) [6-{4-[2-(1H-1,2,3-benzotriazol-1-yl)-3-{4-[difluoro(phosphono)methyl]phenyl}-2-phenylpropyl]phenyl}-2-(1-hydroxy-3-methylbutyl)quinoline-8-phosphonic acid] | 6 | 17
O=P(O)(O)C(F)(F)c1ccc(CC(Cc2ccc(C(F)(F)P(=O)(O)O)cc2)(c2ccccc2)n2nnc3ccccc32)cc1 | – | 11
O=P(O)(O)C(F)(F)c1ccc(C[C@H](c2ccccc2)n2nnc3ccccc32)cc1 [({4-[(2R)-2-(1H-1,2,3-benzotriazol-1-yl)-2-phenylethyl]phenyl}difluoromethyl)phosphonic acid] | 8040 | –
